Source: patent US20100093706A1, “MULTIMEDIATOR TRANSPORTER INHIBITORS FOR USE IN TREATMENT OF CENTRAL NERVOUS SYSTEM DISORDERS” (priority 2006, published 2010)

Tests used:
M1 receptor = molecular target: T1, M1 receptor (Homo sapiens, UniProt P11229); assay: in vitro selectivity panel, M1 receptor; type: binding
T1 sequence (P11229 1-460): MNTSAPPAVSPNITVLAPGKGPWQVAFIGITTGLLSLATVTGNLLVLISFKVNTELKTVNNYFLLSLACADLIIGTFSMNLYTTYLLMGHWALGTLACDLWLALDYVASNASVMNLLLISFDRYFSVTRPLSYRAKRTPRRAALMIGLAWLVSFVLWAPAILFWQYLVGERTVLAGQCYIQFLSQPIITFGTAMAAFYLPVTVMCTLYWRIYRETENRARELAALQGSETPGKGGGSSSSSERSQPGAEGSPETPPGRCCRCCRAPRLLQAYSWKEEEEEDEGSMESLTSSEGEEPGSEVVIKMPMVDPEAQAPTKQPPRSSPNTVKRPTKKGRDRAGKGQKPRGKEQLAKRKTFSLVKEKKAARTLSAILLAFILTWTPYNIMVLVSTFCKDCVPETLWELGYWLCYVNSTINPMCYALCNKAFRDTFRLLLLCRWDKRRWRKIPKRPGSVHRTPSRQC
Method: The in vitro selectivity profile of two representative subject compounds, (3) and (1), are also tested against a panel of other receptors, including the M1 receptor, Histamine H1 receptor, sigma-1 (σ1) receptor, β1-adrenergic receptor, and dopamine D2 receptor. Representative results are listed below in Table III: […]

rat = assay: acute single-dose toxicology in rat; type: in vivo
Method: An in vivo evaluation was carried out to determine the maximum tolerated dose of numerous test compounds in rat. The compounds were administered i.v., and the animals were then observed for 72 hours.
Briefly, experimental rats, in groups of 5 animals, were administered with various doses of respective inhibitors (e.g. 30, 90, 120, and 200 mg/kg), and the observed toxicological effects were recorded.

DAT (r) = DAT (r) (Rattus norvegicus, UniProt P23977); assay: in vitro functional uptake, rat DAT; type: cell-based
5-HT = 5-HT (Homo sapiens, UniProt P31645); assay: cell-based; settings: own compounds tested as racemic mixtures of enriched diastereomers
Sprague-Dawley rats = assay: 7 day multidose oral dosing toxicology study; type: in vivo, rat
Excerpt: The representative results are listed below in Table VI.

rats = assay: forced swim test (behavioral despair assay) in rats; type: in vivo; settings: rat
Method: In vivo efficacy of several illustrative inhibitors of the instant invention, (1), (3), and (4), were measured using standard forced swim test model using rat. The objective of this study was to assess the antidepressant effects of test compounds in the behavioral despair assay in rats using a modification of a method described by Porsolt R. D. et al. in Behavioural despair in rats: a new model sensitive to antidepressant treatment, Eur. J. Pharmacol., 47: 379-391, 1978; Porsolt et al., Nature 266: 730-732, 1977; and Porsolt et al., in Psychopharmacology, Olivier, Mos, and Slangen (eds) Birkhäuser Verlag, Basel, pp. 137-159, 1991. Briefly, when mice (or rats) are forced to swim in a cylinder from which no escape is possible, they readily adopt a characteristic immobile posture and make no further attempts to escape except for small movements needed to keep floating. The immobility is considered by some to reflect a “depressive mood” (Porsolt et al., Nature 266: 730-732, 1977) in which animals cease to struggle to escape the aversive situation. The immobility induced by the procedure is influenced by a wide variety of antidepressants (Porsolt et al., in Psychopharmacology, Olivier, Mos, and Slangen (eds) Birkhauser Verlag, Basel, pp. 137-159, 1991) and has a good predictive validity in that it detects antidepressants with different mechanisms of action (TCAs, SSRIs, MAOIs, and other atypical ones). The test is sensitive to muscle-relaxant (benzodiazepines) and sedative (neuroleptics) effects, leading to enhanced immobility (Porsolt et al., supra).
In a typical experiment, animals are placed singly into a cylinder (e.g. 46×30 cm) containing fresh water at about 20° C. for 6 minutes. The activity (or immobility) of the animal is measured by an observer minute by minute. In more detail, the animals were preconditioned in a pretest session, where the rats were individually forced to swim inside a vertical plexiglass cylinder containing water maintained at 19-20° C. After 15 minutes in the water, they were allowed to dry for […] in a heated enclosure. Twenty-four hours later, the compounds were administered either intraperitoneally or orally to the animals. One hour after administration of the test compound, animals were put back into the cylinder containing water. The total duration of immobility was measured during the last 4 minutes of a 6 minute test.
The results are expressed as the percentage of variation of the total duration of immobility calculated from the mean value of the vehicle-treated group (% variation=[(immobility duration of vehicle−immobility duration of test compound)/(immobility duration of vehicle)]×100%).
In order to measure the in vivo efficacy of inhibiting DAT in rats using an inhibitor of the instant invention, one test inhibitor ((1), (3), or (4)) was injected i.p. as racemic mixtures of diastereomers into the animals, at various-doses (e.g. 7.5 and […]). Sibutramine (2.0 and 2.5 mg/kg), Bupropion (7.5 and 10 mg/kg), and Imipramine (30 mg/kg) were similarly administered as controls. […] Asterisks indicate highly statistical significant results.
A fourth inhibitor, (6) was administered p.o. as a racemic mixture of diastereomers at either 35 or 75 mg/kg. Sibutramine (5.0 and 3.75 mg/kg), Bupropion (30 and 40 mg/kg), and Imipramine (100 mg/kg) were similarly administered as controls.
Similarly, (1) was also administered p.o. as a racemic mixture of enriched (95:5) diastereomer at either 35 or 75 mg/kg. […]

Sequence of DAT (r) (P23977 whole entry): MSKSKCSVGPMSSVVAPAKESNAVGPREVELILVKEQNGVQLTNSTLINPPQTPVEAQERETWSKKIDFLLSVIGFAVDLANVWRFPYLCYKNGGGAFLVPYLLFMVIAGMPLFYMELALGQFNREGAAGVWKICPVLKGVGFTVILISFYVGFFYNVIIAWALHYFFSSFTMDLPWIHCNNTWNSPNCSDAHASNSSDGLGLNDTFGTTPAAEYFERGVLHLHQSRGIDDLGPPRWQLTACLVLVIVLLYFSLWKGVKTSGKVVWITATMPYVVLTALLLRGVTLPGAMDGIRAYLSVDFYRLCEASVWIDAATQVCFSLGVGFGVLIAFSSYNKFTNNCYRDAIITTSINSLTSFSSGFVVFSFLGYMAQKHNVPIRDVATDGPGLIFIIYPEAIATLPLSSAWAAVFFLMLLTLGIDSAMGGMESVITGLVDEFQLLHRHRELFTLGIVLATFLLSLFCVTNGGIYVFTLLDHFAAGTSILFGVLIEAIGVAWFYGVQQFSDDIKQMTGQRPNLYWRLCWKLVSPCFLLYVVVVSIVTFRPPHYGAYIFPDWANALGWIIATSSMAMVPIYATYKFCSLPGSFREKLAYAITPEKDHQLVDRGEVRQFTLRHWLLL
Sequence of 5-HT (P31645 whole entry): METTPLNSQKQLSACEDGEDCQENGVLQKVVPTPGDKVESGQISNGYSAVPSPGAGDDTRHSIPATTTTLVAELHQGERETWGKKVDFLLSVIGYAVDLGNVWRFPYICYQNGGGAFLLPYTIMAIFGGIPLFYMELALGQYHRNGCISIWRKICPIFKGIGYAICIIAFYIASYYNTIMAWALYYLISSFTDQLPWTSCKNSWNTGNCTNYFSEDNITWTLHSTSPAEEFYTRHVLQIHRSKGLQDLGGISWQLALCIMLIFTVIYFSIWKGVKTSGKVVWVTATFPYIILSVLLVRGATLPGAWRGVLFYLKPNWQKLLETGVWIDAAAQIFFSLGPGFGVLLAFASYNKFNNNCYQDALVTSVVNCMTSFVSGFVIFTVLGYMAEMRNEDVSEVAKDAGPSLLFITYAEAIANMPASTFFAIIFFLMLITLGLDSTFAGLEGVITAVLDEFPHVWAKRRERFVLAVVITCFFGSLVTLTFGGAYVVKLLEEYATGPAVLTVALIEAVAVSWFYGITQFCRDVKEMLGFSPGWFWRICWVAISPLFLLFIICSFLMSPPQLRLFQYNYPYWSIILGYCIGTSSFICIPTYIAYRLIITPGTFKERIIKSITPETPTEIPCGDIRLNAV

CC1CCN(CC2(c3ccc(Cl)cc3)CCC2)CC1COc1ccc(C(F)(F)F)cc1 (stereo not shown) [(1)]
M1 (nM)h (M1 receptor): 5000 nM
acute single dose toxicology, observed symptoms (rat; rat (n = 5), 200 mg/kg, i.v., observed 72 hours): decreased grip strength, and slight depression
acute single dose toxicology, observed symptoms (rat; rat, doses below 120 mg/kg): no significant observed symptoms
EC50 (DAT (r)): 0.08 µM
IC50 (5-HT): 1200 nM
7 day multidose oral toxicology, symptoms (Sprague-Dawley rats; Sprague-Dawley rats n = 6 (3M/3F), oral 100 mg/kg/day, 100 mg/kg/day): did not display any significant symptoms
7 day multidose oral toxicology, self-mutilation (number of animals) (Sprague-Dawley rats; n = 6, oral 200 mg/kg/day): 1 self-mutilation
7 day multidose oral toxicology, self-mutilation (number of animals) (Sprague-Dawley rats; n = 6, oral 400 mg/kg/day): 3 self-mutilation
forced swim test efficacy versus commercial drugs (FIG. 1) (rats; i.p., racemic mixtures of diastereomers): performed equally well, if not better, than the commercial drugs Sibutramine, Bupropion, and Imipramine
forced swim test efficacy versus commercial drugs (FIG. 2, FIG. 3) (rats; p.o., 35 or 75 mg/kg): performed equally well, if not better, than the commercial drugs Sibutramine, Bupropion, and Imipramine
